The values below come from ChEMBL document CHEMBL1201862, “PubChem BioAssay data set” (2004).

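Test compounds were applied to cells in 96-well plates for 48 hours at 5 doses. The concentration for 50% growth inhibition is given as GI50.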 Active and inactive are the calls of the source. Cut-off read from the data, not from the text of the source: active = GI50 up to about 1.1 µM and inactive = higher. Where only a bound is given, the exact number is not on record here.

Some test systems named below: 786-0; HT-29; K562; KM12; LOX IMVI; MOLT-4; NCI-H460; OVCAR-5; RPMI-8226; SK-MEL-2; SK-MEL-5; SN12C; SNB-75; U-251; UACC-257; UACC-62; SR.
What all share (assay): DTP human tumour cell line panel, 48 h

Take `CN(CC(=O)O)S(=O)(=O)c1ccc(F)cc1`: the GI50 in the test with 786-0, in the test on HT-29, with K562, with KM12, with LOX IMVI and with MOLT-4 was > 100 µM (inactive) each time. Besides, the GI50 in the test with NCI-H460, with OVCAR-5, in the test with RPMI-8226, with SK-MEL-2, in the test on SK-MEL-5 and in the test with SN12C was > 100 µM (inactive) throughout. The GI50 with SNB-75, in the test on U-251, in the test on UACC-257 and in the test with UACC-62 was > 100 µM (inactive) throughout.

Regarding `O/N=C(\c1nc2ccc(Cl)cc2nc1O)C(O)c1ccc(Cl)cc1Cl` (stereo not given), the GI50 in the test with 786-0, in the test on HT-29, in the test on K562, with KM12, in the test with LOX IMVI and in the test on MOLT-4 was > 100 µM (inactive) in each case. Moreover, the GI50 in the test on NCI-H460, in the test with OVCAR-5, with RPMI-8226, with SK-MEL-5, in the test with SN12C and with SNB-75 was > 100 µM (inactive) throughout. Also, the GI50 in the test with SR, with U-251, in the test on UACC-257 and with UACC-62 was > 100 µM (inactive) in each case.

Turning to `C/C(CC(=O)Nc1ccc(Cl)c(Cl)c1)=N/NC(=O)C[n+]1ccccc1`, the GI50 in the test with 786-0 is 43.1 µM (inactive); with HT-29, > 100 µM (inactive); in the test with K562 it was 45.8 µM (inactive); in the test on KM12, 88.7 µM (inactive); in the test with LOX IMVI, 18.8 µM (inactive); with MOLT-4, 94.2 µM (inactive). The GI50 with NCI-H460 is 77.4 µM (inactive); with OVCAR-5, > 100 µM (inactive); in the test on RPMI-8226 it was 32.3 µM (inactive); with SK-MEL-2 it was > 100 µM (inactive); with SK-MEL-5, > 100 µM (inactive); in the test with SN12C, > 100 µM (inactive). Also, the GI50 is 23.7 µM (inactive) with SR, > 100 µM (inactive) in the test with U-251, > 100 µM (inactive) in the test with UACC-257 and > 100 µM (inactive) in the test with UACC-62.

For `Cc1cc(Cl)ccc1N1C(=O)C(=O)C(c2nc3ccccc3o2)C(=O)C1=O`, the GI50 in the test on 786-0 is > 100 µM (inactive); in the test with HT-29, 65.8 µM (inactive); with KM12, > 100 µM (inactive); in the test on MOLT-4 it was 30.4 µM (inactive); in the test on NCI-H460, > 100 µM (inactive); in the test with SK-MEL-2, > 100 µM (inactive). The GI50 in the test on SK-MEL-5 is > 100 µM (inactive); in the test on SN12C it was > 100 µM (inactive); in the test on SNB-75 it was 63.4 µM (inactive); in the test on SR, 34 µM (inactive); in the test on U-251 it was > 100 µM (inactive); in the test on UACC-257 it was 71 µM (inactive). Besides, the GI50 with UACC-62 is 65 µM (inactive).

With `COCC(O)CN1C(N)=NC(O)C1O` (stereo not given), the GI50 in the test on 786-0, with HT-29, in the test with KM12, in the test on LOX IMVI, in the test on NCI-H460 and in the test on OVCAR-5 was > 100 µM (inactive) throughout. Also, the GI50 with SK-MEL-2, with SK-MEL-5, in the test with SN12C, with SNB-75, in the test with SR and in the test with U-251 was > 100 µM (inactive) throughout. Besides, the GI50 in the test on UACC-257 is > 100 µM (inactive).

Regarding `COc1ccc(C2ON(c3ccccc3)CC=C2C)cc1` (stereo not given), the GI50 was > 100 µM (inactive) in the test with 786-0; 34.4 µM (inactive) in the test on HT-29; 60.5 µM (inactive) with K562; 99.1 µM (inactive) in the test with KM12; > 100 µM (inactive) in the test on LOX IMVI; 52.4 µM (inactive) in the test with MOLT-4. The GI50 is > 100 µM (inactive) with NCI-H460; 34 µM (inactive) in the test with OVCAR-5; 43.7 µM (inactive) with RPMI-8226; 24 µM (inactive) with SK-MEL-2; > 100 µM (inactive) with SN12C; 94.8 µM (inactive) in the test with SNB-75. For the same compound, the GI50 in the test on SR was 37.2 µM (inactive); in the test on U-251, 99.8 µM (inactive); with UACC-257 it was 42.5 µM (inactive); in the test on UACC-62 it was 87.1 µM (inactive).

With `CCN(CC)c1ccc(/N=N/c2ccc([N+](=O)[O-])cc2OC(=O)/C=C/c2ccccc2)c(OC(=O)/C=C/c2ccccc2)c1`, the GI50 in the test with 786-0 is 7.43 µM (inactive); in the test on HT-29 it was > 100 µM (inactive); with K562, > 68.9 µM (inactive); in the test on KM12, 3.83 µM (inactive); with LOX IMVI it was 4.74 µM (inactive); in the test with MOLT-4, 5.16 µM (inactive). The GI50 in the test with NCI-H460 was 0.7 µM (active); in the test on SK-MEL-2, > 95.3 µM (inactive); in the test with SK-MEL-5, 12.2 µM (inactive); with SN12C it was 20.6 µM (inactive); with SNB-75, 8.04 µM (inactive); in the test on SR, 4.27 µM (inactive). Besides, the GI50 is 5.43 µM (inactive) in the test on U-251, 2.23 µM (inactive) with UACC-257 and 8.11 µM (inactive) with UACC-62.

For `COc1ccc(-c2cc(=O)c3ccccc3o2)cc1N`, the GI50 with 786-0 was > 100 µM (inactive); in the test with HT-29 it was 32.8 µM (inactive); in the test with K562, 12.2 µM (inactive); in the test with KM12, 29.3 µM (inactive); in the test with LOX IMVI, 34.6 µM (inactive); in the test on MOLT-4, 26.3 µM (inactive). In addition, the GI50 in the test on NCI-H460 was 36 µM (inactive); in the test on OVCAR-5 it was 56 µM (inactive); with RPMI-8226, 44.8 µM (inactive); in the test on SK-MEL-2, 37.2 µM (inactive); in the test with SK-MEL-5, 25.8 µM (inactive); in the test with SN12C it was 84.7 µM (inactive). Moreover, the GI50 in the test on SNB-75 is 18.7 µM (inactive); in the test with U-251 it was 69.3 µM (inactive); in the test on UACC-257 it was 51.3 µM (inactive); in the test with UACC-62, 25.8 µM (inactive).

`CCc1ccccc1NC(=O)/C(CC(=O)c1c(C)[n+]([O-])c2ccccc2[n+]1[O-])=N\NS(=O)(=O)c1ccc(C)cc1`: the GI50 is 87.5 µM (inactive) in the test with 786-0; 38.7 µM (inactive) in the test on HT-29; 27.2 µM (inactive) in the test with K562; 36.9 µM (inactive) in the test on KM12; 18 µM (inactive) in the test with MOLT-4; 25.6 µM (inactive) with NCI-H460. The GI50 in the test with OVCAR-5 is > 100 µM (inactive); in the test with RPMI-8226, 12.2 µM (inactive); in the test on SK-MEL-2 it was > 100 µM (inactive); in the test with SN12C, 28.8 µM (inactive); in the test on SNB-75 it was > 100 µM (inactive); in the test on SR it was 16.6 µM (inactive). The results for the GI50 in the test on U-251, in the test on UACC-257 and with UACC-62 were 27 µM (inactive), 23.9 µM (inactive) and 18.9 µM (inactive), respectively.

On to `CC(=O)OC(=O)O/C=C\CCl`, for which the GI50 with 786-0 is > 100 µM (inactive); in the test on K562 it was > 100 µM (inactive); in the test on KM12, > 100 µM (inactive); in the test with MOLT-4, 38 µM (inactive); with NCI-H460, > 100 µM (inactive); with RPMI-8226, > 100 µM (inactive). In addition, the GI50 in the test with SK-MEL-2 is > 100 µM (inactive); with SK-MEL-5 it was > 100 µM (inactive); in the test with SN12C, > 100 µM (inactive); in the test with SNB-75, > 100 µM (inactive); in the test on SR it was 42 µM (inactive); in the test on U-251, > 100 µM (inactive). Further, the GI50 in the test on UACC-257 and in the test on UACC-62 was > 100 µM (inactive) in each case.
